{
  "source": "ChEMBL document CHEMBL5223092",
  "about": "“Antibacterial activities of plant-derived xanthones” (RSC Med Chem, 2022)",
  "key": {"Staphylococcus aureus [1]": {"test_system": "Staphylococcus aureus", "assay": "Antibacterial activity against Staphylococcus aureus", "format": "functional"}, "Staphylococcus aureus [2]": {"test_system": "Staphylococcus aureus", "assay": "Antibacterial activity against methicillin resistant Staphylococcus aureus", "format": "functional"}, "Escherichia coli [3]": {"test_system": "Escherichia coli", "assay": "Antibacterial activity against Escherichia coli NIHJ K 12", "format": "functional"}, "Staphylococcus aureus [4]": {"test_system": "Staphylococcus aureus", "assay": "Antibacterial activity against Staphylococcus aureus NIHJ 209p", "format": "functional"}, "Staphylococcus aureus [5]": {"test_system": "Staphylococcus aureus", "assay": "Antibacterial activity against methicillin resistant Staphylococcus aureus by liquid dilution method", "format": "functional"}, "Escherichia coli [6]": {"test_system": "Escherichia coli", "assay": "Antibacterial activity against Escherichia coli TISTR 780 incubated for 16 to 18 hrs by Mueller-Hinton broth based two-fold serial dilution method", "format": "functional", "details": "time 16-18 hrs"}, "[7]": {"test_system": "Staphylococcus epidermidis", "assay": "Antibacterial activity against Staphylococcus epidermidis ATCC 12228 incubated for 16 to 18 hrs by Mueller-Hinton broth based two-fold serial dilution method"}, "Pseudomonas aeruginosa [8]": {"test_system": "Pseudomonas aeruginosa", "assay": "Antibacterial activity against Pseudomonas aeruginosa TISTR 781 incubated for 16 to 18 hrs by Mueller-Hinton broth based two-fold serial dilution method", "format": "functional", "details": "time 16-18 hrs"}, "Salmonella typhimurium": {"test_system": "Salmonella typhimurium", "assay": "Antibacterial activity against Salmonella typhimurium TISTR 292 incubated for 16 to 18 hrs by Mueller-Hinton broth based two-fold serial dilution method", "format": "functional, Salmonella enterica subsp. enterica serovar Typhimurium", "details": "Salmonella enterica, time 16-18 hrs"}, "Micrococcus luteus [9]": {"test_system": "Micrococcus luteus", "assay": "Antibacterial activity against Micrococcus luteus TISTR 1466 incubated for 16 to 18 hrs by Mueller-Hinton broth based two-fold serial dilution method", "format": "functional", "details": "time 16-18 hrs"}, "Bacillus cereus [10]": {"test_system": "Bacillus cereus", "assay": "Antibacterial activity against Bacillus cereus TISTR 688 incubated for 16 to 18 hrs by Mueller-Hinton broth based two-fold serial dilution method", "format": "functional", "details": "time 16-18 hrs"}, "Salmonella typhi": {"test_system": "Salmonella typhi", "assay": "Antibacterial activity against Salmonella typhi incubated for 8 to 12 hrs by Alamar blue reagent based microdilution broth method", "format": "functional, Salmonella enterica subsp. enterica serovar Typhi", "details": "Salmonella enterica; time 8-12 hrs"}, "Staphylococcus aureus [11]": {"test_system": "Staphylococcus aureus", "assay": "Antibacterial activity against Staphylococcus aureus TISTR 517 incubated for 8 to 12 hrs by Alamar blue reagent based microdilution broth method", "format": "functional", "details": "time 8-12 hrs"}, "Enterococcus faecalis": {"test_system": "Enterococcus faecalis", "assay": "Antibacterial activity against Streptococcus faecalis incubated for 8 to 12 hrs by Alamar blue reagent based microdilution broth method", "format": "functional", "details": "time 8-12 hrs"}, "Bacillus subtilis [12]": {"test_system": "Bacillus subtilis", "assay": "Antibacterial activity against Bacillus subtilis incubated for 8 to 12 hrs by Alamar blue reagent based microdilution broth method", "format": "functional", "details": "time 8-12 hrs"}, "Pseudomonas aeruginosa [13]": {"test_system": "Pseudomonas aeruginosa", "assay": "Antibacterial activity against Pseudomonas aeruginosa incubated for 8 to 12 hrs by Alamar blue reagent based microdilution broth method", "format": "functional", "details": "time 8-12 hrs"}, "[14]": {"assay": "Lipophilicity, logP of the compound", "format": "physicochemical", "details": "octanol/water"}, "Staphylococcus aureus [15]": {"test_system": "Staphylococcus aureus", "assay": "Antibacterial activity against methicillin resistant Staphylococcus aureus SK1 by Mueller-Hinton broth based two-fold serial dilution method", "format": "functional"}, "Staphylococcus aureus [16]": {"test_system": "Staphylococcus aureus", "assay": "Antibacterial activity against Staphylococcus aureus TISTR 1466 by Mueller-Hinton broth based two-fold serial dilution method", "format": "functional"}, "Bacillus subtilis [17]": {"test_system": "Bacillus subtilis", "assay": "Antibacterial activity against Bacillus subtilis", "format": "functional"}, "Escherichia coli [18]": {"test_system": "Escherichia coli", "assay": "Antibacterial activity against Escherichia coli ATCC 25922 by Mueller-Hinton broth based two-fold serial dilution method", "format": "functional"}, "Listeria monocytogenes": {"test_system": "Listeria monocytogenes", "assay": "Antibacterial activity against Listeria monocytogenes DMST 17303 by Mueller-Hinton broth based two-fold serial dilution method", "format": "functional"}, "Streptococcus pyogenes": {"test_system": "Streptococcus pyogenes", "assay": "Antibacterial activity against Streptococcus pyogenes DMST 17020 by Mueller-Hinton broth based two-fold serial dilution method", "format": "functional"}, "[19]": {"test_system": "Staphylococcus epidermidis", "assay": "Antibacterial activity against Staphylococcus epidermidis DMST 15505 by Mueller-Hinton broth based two-fold serial dilution method", "format": "functional"}, "Micrococcus luteus [20]": {"test_system": "Micrococcus luteus", "assay": "Antibacterial activity against Micrococcus luteus", "format": "functional"}, "Bacillus cereus [21]": {"test_system": "Bacillus cereus", "assay": "Antibacterial activity against Bacillus cereus", "format": "functional"}, "Staphylococcus aureus [22]": {"test_system": "Staphylococcus aureus", "assay": "Antibacterial activity against Staphylococcus aureus TISTR 517 by Mueller-Hinton broth based two-fold serial dilution method", "format": "functional"}, "Staphylococcus aureus [23]": {"test_system": "Staphylococcus aureus", "assay": "Antibacterial activity against methicillin resistant Staphylococcus aureus SK1 incubated for 16 to 18 hrs by agar microdilution method", "format": "functional", "details": "time 16-18 hrs"}},
  "data": [
    {"molecule": "C=CC(C)(C)c1cc(O)c2oc3c(O)cccc3c(=O)c2c1O", "values": [
      {"measurement": "MIC", "setting": "Staphylococcus aureus [1]", "value": 6.25, "unit": "µg/mL"},
      {"measurement": "MIC", "setting": "Staphylococcus aureus [2]", "value": 3.13, "unit": "µg/mL"}
    ]},
    {"molecule": "C=CC(C)(C)c1cc(O)c2oc3c(O)c(O)ccc3c(=O)c2c1O", "values": [
      {"measurement": "MIC", "setting": "Escherichia coli [3]", "value": 25, "unit": "µg/mL"},
      {"measurement": "MIC", "setting": "Staphylococcus aureus [4]", "value": 12.5, "unit": "µg/mL"},
      {"measurement": "MIC", "setting": "Staphylococcus aureus [5]", "value": 25, "unit": "µg/mL"}
    ]},
    {"molecule": "CC1(C)CC(O)Oc2cc(O)c3c(=O)c4cccc(O)c4oc3c21", "note": "(stereo not given)", "values": [
      {"measurement": "MIC", "setting": "Escherichia coli [6]", "value": 32, "unit": "µg/mL"},
      {"measurement": "MIC", "setting": "[7]", "value": 16, "unit": "µg/mL"},
      {"measurement": "MIC", "setting": "Pseudomonas aeruginosa [8]", "value": 16, "unit": "µg/mL"},
      {"measurement": "MIC", "setting": "Salmonella typhimurium", "value": 32, "unit": "µg/mL"},
      {"measurement": "MIC", "setting": "Micrococcus luteus [9]", "value": 16, "unit": "µg/mL"},
      {"measurement": "MIC", "setting": "Bacillus cereus [10]", "value": 32, "unit": "µg/mL"}
    ]},
    {"molecule": "CC(C)=CCc1c2c(c(O)c3c(=O)c4ccc(O)c(O)c4oc13)C=CC(C)(C)O2", "values": [
      {"measurement": "MIC", "setting": "Salmonella typhi", "value": 1.1, "unit": "µg/mL"},
      {"measurement": "MIC", "setting": "Staphylococcus aureus [11]", "value": 1.1, "unit": "µg/mL"},
      {"measurement": "MIC", "setting": "Enterococcus faecalis", "value": 1.1, "unit": "µg/mL"},
      {"measurement": "MIC", "setting": "Bacillus subtilis [12]", "value": 1.1, "unit": "µg/mL"},
      {"measurement": "MIC", "setting": "Pseudomonas aeruginosa [13]", "value": 9.3, "unit": "µg/mL"}
    ]},
    {"molecule": "CC(C)=CCC/C(C)=C/Cc1c2c(c3oc4c(O)cccc4c(=O)c3c1O)C=CC(C)(C)O2", "values": [
      {"measurement": "MIC", "setting": "Salmonella typhi", "value": 4.6, "unit": "µg/mL"},
      {"measurement": "MIC", "setting": "Staphylococcus aureus [11]", "value": 2.3, "unit": "µg/mL"},
      {"measurement": "MIC", "setting": "Enterococcus faecalis", "value": 18.7, "unit": "µg/mL"},
      {"measurement": "MIC", "setting": "Bacillus subtilis [12]", "value": 4.6, "unit": "µg/mL"},
      {"measurement": "MIC", "setting": "Pseudomonas aeruginosa [13]", "value": "> 50", "unit": "µg/mL"}
    ]},
    {"molecule": "COc1cc2c(=O)c3c(O)cccc3oc2c(O)c1OC", "values": [
      {"measurement": "MIC", "setting": "[7]", "value": 16, "unit": "µg/mL"},
      {"measurement": "logP", "setting": "[14]", "value": 2.09},
      {"measurement": "MIC", "setting": "Bacillus cereus [10]", "value": 16, "unit": "µg/mL"}
    ]},
    {"molecule": "CC(C)=CCc1c(O)cc2oc3c(c(=O)c2c1O)C[C@H](CC=C(C)C)C(=O)[C@@]3(O)CC=C(C)C", "values": [
      {"measurement": "MIC", "setting": "Staphylococcus aureus [15]", "value": 2, "unit": "µg/mL"},
      {"measurement": "MIC", "setting": "Staphylococcus aureus [16]", "value": 2, "unit": "µg/mL"}
    ]},
    {"molecule": "COc1c(O)cc2oc3cc4c(c(O)c3c(=O)c2c1CC=C(C)C)CC(C(C)(C)O)O4", "note": "(stereo not given)", "values": [
      {"measurement": "MIC", "setting": "Bacillus subtilis [17]", "value": 2, "unit": "µg/mL"},
      {"measurement": "MIC", "setting": "Escherichia coli [18]", "value": 25, "unit": "µg/mL"},
      {"measurement": "MIC", "setting": "Listeria monocytogenes", "value": 0.78, "unit": "µg/mL"},
      {"measurement": "MIC", "setting": "Streptococcus pyogenes", "value": 3.13, "unit": "µg/mL"},
      {"measurement": "MIC", "setting": "[19]", "value": 25, "unit": "µg/mL"},
      {"measurement": "MIC", "setting": "Micrococcus luteus [20]", "value": 12.5, "unit": "µg/mL"},
      {"measurement": "MIC", "setting": "Bacillus cereus [21]", "value": 8, "unit": "µg/mL"},
      {"measurement": "MIC", "setting": "Staphylococcus aureus [22]", "value": 12.5, "unit": "µg/mL"},
      {"measurement": "MIC", "setting": "Staphylococcus aureus [23]", "value": 4, "unit": "µg/mL"}
    ]}
  ]
}
